Assay [1] relates to pancreas, stomach, liver, and duodenal cells. The assay can be described thus: Primary culture of embryonal mouse pancreas, stomach, liver and duodenal cells, double stain with antibodies to insulin and glucagon. It is filed as cell-based. The conditions noted are these: 10 nmol/l, cultured 8 days. The method, then:
(§1) Cells originating from various kinds of tissues of a 17.5 day-old embryonal mouse were divided into a group added with GLP-1(1-37) (10 nmol/l) or GLP-1(7-37) (10 nmol/l) and a non-addition control group, and were then cultured. After the cells had been cultured for 8 days, a double stain was performed using antibodies to insulin and glucagon. Specifically, the process was performed as follows.
(§2) Specimens of pancreas, liver, stomach, duodenum, and small intestine (including the jejunum, ileum, and colon) tissues were collected from a 17.5 day-old C57BL/6 embryonal mouse under a microscope. Then, those tissues were immersed in a Hanks solution (Hanks Balanced Solution, Gibco BRL, Co., Ltd., without containing Ca) containing 5 mM of CaCl2 (pH 7.4) and 0.1% of collagenase, and were then incubated at 37° C. for 10 to 20 minutes, followed by gently pipetting for digestion, respectively.
The obtained cells were washed with a culture medium and then inoculated in a 6-well plate for tissue culture at a cell density of 5×10^4 cells/cm^2. After 24 hours from the start of the culture, GLP-1(1-37) or GLP-1(7-37) was added to the culture. […]

For the next assay, the system named is diabetes model mouse. As to the kind of experiment: Transplanting cultured jejunum into STZ diabetes model mouse, blood sugar level. Format: in vivo. The method, then:
(§3) The jejunum collected from a 14.5-day embryonal mouse was embedded in type I collagen gel (Nitta Gelatin Inc.) and was then grown in organ culture in the presence of 50 nM GLP-1(1-37) and 50 nM PDGF (Platelet Derived Growth Factor). The amount of insulin in the culture medium was determined using a mouse insulin-detecting kit (Shibayagi) according to the attached protocol.
The jejunum at the second day from the start of the organ culture was transplanted in the abdominal cavity of a diabetes model mouse. The mouse was changed to a type I diabetes model by the administration of 200 mg/kg streptozotocin (hereinafter, referred to as “STZ”) three days before the transplantation, and the blood sugar level of the mouse was 300 to 350 mg/dl. Similarly, jejunal cells cultured in the absence of GLP-1 (1-37) were transplanted into a diabetes model mouse.

The test system of a further assay is STZ diabetes model rat. As to the kind of experiment: Blood sugar decrease effect on STZ diabetes model rat. Format: in vivo. The method, then:
GLP-1 (1-37) (80 μg/head) or PBS was intraperitoneally administered to a Wistar male rat once a day over a ten-day period from day 2-12 after birth. On the 7th day of the administration (9-day old), 75 mg/kg of STZ was subcutaneously administered to induce diabetes. In order to prepare normal controls, some PBS-administered rats were administered citrate buffer instead of STZ. Subsequently, the rats were allowed to ingest feed and water freely. In the 42nd day, blood of each rat was drawn from the tail vein and the blood sugar level was measured. The measurement of the blood sugar level was performed using the whole blood sample by the glucose oxidase method in accordance with a general method.

For assay [2] the following is noted: background art; cited from earlier work.
For another assay, the system named is jejunum. The assay can be described thus: Organ culture of embryonal mouse jejunum, insulin in the culture medium. The conditions noted are these: 50 nM GLP-1(1-37) with 50 nM PDGF, jejunum of 14.5-day embryonal mouse in collagen gel. It is filed as cell-based. The method, then:
as §3

Assay [3] relates to intestinal epithelium cells. The assay can be described thus: In vivo GLP-1(1-37) administration to pregnant mouse, insulin/glucagon immunostain of newborn intestine sections. The conditions noted are these: 10 nmol i.p. to pregnant mouse daily, embryonal day 10.5 to 17.5. The method, then: GLP-1(1-37) (10 nmol) was intraperitoneally injected to a pregnant mouse at the same time every day over a seven-day embryonal period from day 10.5 to 17.5. After birth, tissue sections from the small and large intestine of a newborn mouse were double-stained using antibodies to insulin and glucagon. Specifically, the double stain was performed as follows.
Each tissue of the small intestine (including jejunum and ileum) and the large intestine was immersed overnight in a 4% paraformaldehyde-phosphate buffer at 4° C., followed by embedding in O.C.T. compound to prepare section samples. The section samples were dried and fixed with acetone. Subsequently, the section samples were dried overnight at −20° C. and then washed with PBS-Tween 20, followed by immersing in 0.2% Triton X100 for 1 hour. After that, using anti-insulin goat antibody (Santa Cruz) or anti-glucagon mouse antibody (Sigma), and Alexa 488-binding anti-goat IgG donkey antibody or Cy3-binding anti-mouse IgG donkey antibody, the immunostain of insulin and glucagon was carried out, respectively.

Assay [4] relates to preproinsulin I and preproinsulin II mRNA. The assay can be described thus: Insulin gene expression in organs of GLP-1(1-37)-administered STZ diabetes model rat (RT-PCR). It is filed as in vivo. The conditions noted are these: 80 μg/head i.p. once a day for ten days, 42nd day. The method, then: GLP-1(1-37) was confirmed to have the blood sugar decrease effect, so that the presence or absence of insulin production in the intestine of the GLP-1(1-37) administered group was determined by the method described below. GLP-1(1-37)(80 μg/head) or PBS was intraperitoneally administered to each of 6 Wistar male rats once a day over a ten-day […] period from day 2 to 12. On the 7th day of the administration (9-day old), 75 mg/kg of STZ was subcutaneously administered to induce diabetes. In order to prepare normal controls, some PBS-administered rats were administered citrate buffer instead of STZ. Subsequently, the rats were allowed to ingest feed and water freely. On the 42nd day, autopsy was performed to collect the pancreas, stomach, intestine, and lung. After RNA was prepared from each organ using ISOGEN (NIPPONGENE), mRNA of preproinsulin I and mRNA of preproinsulin II were quantified by the RT-PCR method. Oligonuculeotides shown in SEQ ID NOS: 24 and 25 were used for preproinsulin I, and oligonuculeotides shown in SEQ ID NOS: 26 and […] were used for preproinsulin II as PCR primers.

The test system of another assay is jejunal cells. The assay can be described thus: Comparison between GLP-1 and other growth factors, RT-PCR in jejunal cells. Format: cell-based, mouse. The conditions noted are these: GLP-1(1-37) 10 nm/l with activin A, beta cellulin, HGF, EGF; 8 days. The method, then:
In the presence or absence of GLP-1(1-37) (10 nm/l), jejunal cells were cultured by the same way as that of paragraph <1>, except that activin A, beta cellulin, hepatocyte growth factor (HGF), and epidermal growth factor (EGF), which had been reported to control the growth and differentiation of secretory cells in the pancreas, were added. Then, the expression amounts of various kinds of genes were analyzed (a culture period of 8 days).

Another assay relates to intestinal cells. The assay can be described thus: Primary culture of embryonal mouse intestinal cells, double stain with antibodies to insulin and glucagon. It is filed as cell-based. Particulars: 10 nmol/l, cultured 8 days; for generation of insulin-positive cells in intestinal cells: 17.5 day-old embryonal mouse cells. The method, then:
as §1, §2
The obtained cells were washed with a culture medium and then inoculated in a 6-well plate for tissue culture at a cell density of 5×10^4 cells/cm^2. After 24 hours from the start of the culture, GLP-1(1-37) or GLP-1(7-37) was added to the culture. Furthermore, after the cells had been continuously cultured for 8 days, the cells were washed three times with phosphate buffer (hereinafter, referred to as “PBS”) and then fixed by immersing in a 4% paraformaldehyde-phosphate buffer for 5 minutes and a 25% acetone/methanol solution for 1 minute. It should be noted that GLP-1(1-37) and GLP-1(7-37) were purchased from SIGMA.
Subsequently, each well was washed with 0.05% Tween 20/PBS, followed by immersing in 0.2% Triton X100 for 1 hour. After that, anti-insulin goat antibody (Santa Cruz) and anti-glucagon mouse antibody (Sigma) were added to each well, and the whole was incubated at 4° C. for 16 hours, followed by washing the well. Then, Alexa 488-binding anti-goat IgG donkey antibody (Molecular Probes) or Cy3-binding anti-mouse IgG donkey antibody (Jackson Immuno Research Laboratories Inc.) was added to each well, and the whole was then incubated at 4° C. for 4 hours. […]

Assay [5] deals with cultured intestinal cells. The assay can be described thus: RT-PCR gene expression in organ culture of jejunum, concentration-dependent effects. Particulars: 8 days. It is filed as cell-based, mouse. The method, then:
Using a quantitative PCR method, the effects of GLP-1(1-37) on the cultured intestinal cells were analyzed in detail as described below.
Four concentrations of GLP-1(1-37), 0, 5, 10, and 50 nmol/l, were prepared and the organ culture of jejunum was performed by the same way as that of Example 3. After the jejunum had been cultured for 8 days, analyzed using the RT-PCR were the expression amounts of insulin genes (preproinsulin I and preproinsulin II), transcription factor group [neurogenin 3 (ngn3), neuroD/BETA 2, pax-4, Nkx 6.1, and hepatocyte nuclear factor 6 (HNF-6)] that controls the differentiation of secretory cells in the pancreas, a GLP-1 receptor (GLP-1 R), preproglucagon, pancreas duodenal homobox 1 (pdx-1), and hypoxanthine phosphoribosyl transferase (HPRT) as a positive control.
The RT-PCR was performed according to the method described in the literature (Hepatology, 32: 1230-1239) using primers. The primers used herein were as follows.
GLP-1R (SEQ ID NOS: 3 and 4), preproinsulin 1 (SEQ ID NOS: 5 and 6), preproinsulin II (SEQ ID NOS: 7 and 8), preproglucagon (SEQ ID NOS: 9 and 10), pdx-1 (SEQ ID NOS: 11 and 12), ngn3 (SEQ ID NOS: 13 and 14), neuroD (SEQ ID NOS: 15 and 16), pax-4 (SEQ ID NOS: 17 and 18), Nkx 6.1 (SEQ ID NOS: 19 and 20), HNF-6 (SEQ ID NOS: 21 and 22), and HPRT (SEQ ID NOS: 23 and 24).

The subject of the next assay is GLP-1R. As to the kind of experiment: Experiment of inhibiting GLP-1 function with exendin (9-39), RT-PCR in jejunal cells. It is filed as cell-based, mouse. Particulars: 8 days. The method, then: Jejunal cells were cultured by the same way as that of paragraph <1>, except that 0, 10, 100, or 1,000 nmol/l of exendin (9-39), which was a GLP-1R antagonist, was simultaneously added together with GLP-1(1-37) (10 nmol/l). Then, the expression amounts of the insulin gene and other various kinds of genes were analyzed (a culture period of 8 days).

Where [6] appears, read: STZ mouse transplanted with jejunal cells treated with GLP-1(1-37), baseline 300 to 350 mg/dl.

Here are results for 3 substances from patent US7423019B2, “Agent for inducing conversion of intestinal cells into insulin-producing cells and antidiabetic drug” (Ajinomoto Co., Inc., priority 2003, dated 2008).

Entries after “also recorded” stand apart in the source; their conditions may differ.

Turning to “GLP-1(1-37): 37-amino acid peptide having the amino acid sequence from position 92 to position 128 of a preproglucagon peptide; purchased from SIGMA (HDEFERHAEGTFTSDVSSYLEGQAAKEFIAWLVKGRG; Glucagon-like peptide 1; UniProt P01275 92-128, looked up, fragment)”, in assay [1], the “number of insulin-positive cells and glucagon-positive cells versus non-addition group” value is recorded as “no difference”. Moreover, in the assay with diabetes model mouse (STZ mouse (300 to 350 mg/dl) transplanted with jejunal cells treated with GLP-1(1-37)), the “change of blood sugar level after transplantation” value is on record as “decrease in blood sugar level was observed”. In addition, in the assay with diabetes model mouse (setting [6]), the “blood sugar level after eight weeks from the transplantation” value was 75 to 100 mg/dL and the “blood sugar level after four weeks from the transplantation” value was 125 to 225 mg/dL. For the same substance, the “blood sugar level compared to diabetes control group” value in the assay with STZ diabetes model rat (80 μg/head i.p. once a day for ten days, 42nd day) is given as “decreased significantly”. The blood sugar level in the assay with STZ diabetes model rat (80 μg/head i.p. once a day, day 2-12 after birth, STZ 75 mg/kg s.c., measured 42nd day, n = 6) was 430 ± 89 ^##. Also, in assay [2], the activity as incretin result is “weak activity”. Moreover, in the assay on jejunum, the “insulin secretion into the culture medium” value is reported as “insulin secretion was observed”. Besides, in [3], the “insulin-positive intestinal epithelium cells in small and large intestine of newborn mouse” value is on record as “many insulin-positive intestinal epithelium cells were observed”; the “number of insulin positive cells, small intestine compared with large intestine” value was “higher”. In assay [4], the “expression of preproinsulin genes in the pancreas, stomach, and lung” value is “no expression was observed”; the “expressions of preproinsulin I gene and preproinsulin II gene in the intestine” value is given as “significantly increased”. For the same substance, in the assay with jejunal cells, the “expression of preproglucagon and pdx-1” value is recorded as “no change”; the “expression of preproinsulin I, preproinsulin II, and ngn3” value is recorded as “high expression”. Moreover, in the assay with intestinal cells, the “glucagon staining of the insulin-positive cells” value is recorded as “strongly glucagon-positive” and the “generation of insulin-positive cells in intestinal cells” value is “insulin-positive cells were only observed; also recorded: effects on the induction”. In addition, in assay [5] (0, 5, 10, 50 nmol/l), the “expression of GLP-1R, preproglucagon and pdx-1 versus non addition group” value is recorded as “no change in expression”; the “expression of transcription factor group controlling differentiation of secretory cells in the pancreas” value was “increase in expression”. For the same substance, the “expression of the insulin gene (preproinsulin I, preproinsulin II)” value in [5] (5 nmol/l, FIG. 1) is recorded as “expression of the insulin gene was observed”.

On to “GLP-1(7-37) (HAEGTFTSDVSSYLEGQAAKEFIAWLVKGRG; Glucagon-like peptide 1; UniProt P01275 98-128, looked up, fragment) [reference compound]”, for which the “number of insulin-positive cells and glucagon-positive cells versus non-addition group” value in assay [1] is “no difference”. Also, in the assay with intestinal cells, the “generation of insulin-positive cells in intestinal cells” value was “can not effect on the induction”.

exendin (9-39): the “expression of preproinsulin I, preproinsulin II, and ngn3” value in the assay on GLP-1R (exendin (9-39) 10, 100 or 1,000 nmol/l added together with GLP-1(1-37) 10 nmol/l) is “hardly observed”. Also, the “expression of preproglucagon and pdx-1” value in the assay with GLP-1R (exendin (9-39) added together with GLP-1(1-37) 10 nmol/l) is on record as “not influenced”.
